Source: US20210095293A1, “METHODS OF TREATING CANCERS WITH GPR132 INHIBITORS” (The Board of Regents of the University of Texas System, priority 2016, published 2021)

Key:
macrophage Gpr132 = molecular target: T1, macrophage Gpr132 (Mus musculus, UniProt Q9Z282); test: Gpr132 co-immunoprecipitation with LC-MS quantification of lactate; assay type: binding; conditions: lactate of <3 kDa EO771 CM, BMDM lysate
T1 construct: endogenous in cells; host or cells: bone marrow-derived macrophages (BMDMs) from WT C57BL/6 mice; Gpr132-KO BMDMs served as negative control
T1 sequence (Q9Z282 1-382): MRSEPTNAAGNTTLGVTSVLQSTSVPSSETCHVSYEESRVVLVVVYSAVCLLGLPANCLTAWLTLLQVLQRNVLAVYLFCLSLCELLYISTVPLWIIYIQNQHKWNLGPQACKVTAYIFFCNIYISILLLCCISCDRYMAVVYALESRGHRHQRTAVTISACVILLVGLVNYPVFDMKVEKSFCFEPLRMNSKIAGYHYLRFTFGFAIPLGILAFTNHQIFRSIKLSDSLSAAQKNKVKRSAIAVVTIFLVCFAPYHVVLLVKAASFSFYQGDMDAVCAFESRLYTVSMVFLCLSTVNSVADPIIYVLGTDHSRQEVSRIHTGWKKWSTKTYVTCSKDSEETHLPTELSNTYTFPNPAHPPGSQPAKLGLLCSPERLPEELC
Description: To determine whether lactate in the <3 kDa fraction of EO771 CM could bind to macrophage Gpr132, co-immunoprecipitation with anti-Gpr132 in WT and Gpr132-KO BMDMs was performed. Lactate pulled down by Gpr132 was quantified by liquid chromatography-mass spectrometry (LC-MS).
WT or Gpr132-KO BMDM lysate was incubated with concentrated <3 kDa EO771 CM for 4 hrs. This mixture of 1 ml volume was then incubated with 10 μl anti-Gpr132 antibody and 40 μl protein A/G plus-agarose beads overnight at 4° C. After the beads were washed, the IP eluent was collected for lactate quantification. Lactate was extracted and analyzed as reported (7). Briefly, 400 μl of cold MeOH was added to 100 μl of the IP eluent. Samples were mixed and then stored at −80° C. overnight. The next morning, samples were spun at 14,000 g for 10 min, and the supernatant was collected. After drying the supernatant via speedvac, the extract was dissolved in H2O (40 μl) and a portion of this sample (10 μl) analyzed by LC-MS. Lactate was measured using a TSQ Quantiva LC-MS instrument fitted with a Luna NH2 HPLC column ([…], 4.6 mm×100 mm, Phenomenex). The following LC solvents were used: buffer A, 95:5 H2O/ACN, 20 mM ammonium hydroxide, 20 mM ammonium acetate; buffer B, 100% ACN. […] Relative abundance of lactate was determined by measuring the lactate peak area.

4T1.2 cells = test: adherence assay of breast cancer cells to fibronectin; assay type: cell-based, mouse; conditions: macrophages activated by 4T1.2 CM or lactate (5 mM); vs untreated control macrophages
Description: FIGS. 11A-11C. Lactate-activated macrophage promotes cancer cell adhesion, migration and invasion via Gpr132. (FIG. 11A) Adherence assays. 4T1.2 cells were suspended in fibronectin ([…]) pre-coated plates with CM from spleen-derived macrophages (mf) that were treated with 4T1.2 CM or lactate (5 mM) with or without Gpr132 antibody (6 mg/ml) or normal IgG (6 mg/ml) for 10 min. The adhered cells were stained with crystal violet, dissolved in 1% Triton X-100 and measured by OD590. (FIGS. 11B-11C) Boyden chamber assay of cancer cell migration and invasion. 4T1.2 cells (B) or EO771 cells (FIG. 11C) were plated on the upper chamber inserts, with untreated (Control), 4T1.2 CM-activated or lactate-activated spleen-derived WT or Gpr132-KO macrophages plated in the lower chambers. For invasion assay, the inserts were pre-coated with 60 μl matrigel. After migration for 6 hrs (FIG. 11B) or invasion for 24 hrs (FIG. 11C), the migrated or invaded cells were stained with crystal violet and counted as cells per field of view under microscope (n=3-4); For (FIG. 11C), the first bar of each data set of the bar graphs represents the control mf, and the second bar represents Gpr132KO; *p<0.05; **p<0.01; ***p<0.005; ****p<0.001. […]
Cancer cells were treated with the conditioned medium from indicated macrophage for 2 hrs. Adherence of treated breast cancer cells to fibronectin was evaluated as described.

lactate enrichment in Gpr132 co-IP eluent, WT vs Gpr132-KO macrophages (macrophage Gpr132): 7.1 fold
Structure (SMILES): CC(O)C(=O)O (centres unmarked) [lactate]
adherence of 4T1.2 cells to fibronectin with CM from activated macrophages (4T1.2 cells): significantly increased
